Assay [1] relates to Rattus norvegicus. The assay can be described thus: Neuroprotective activity against ischemia reperfusion injury in Wistar rat assessed as […] 1+2 at 8 mg/kg, iv by enzyme immunoassay (RVb = 1.97 +/- 0.44 ug/L). Type of assay: functional.
The test system of assay [2] is Rattus norvegicus. Kind of assay: Neuroprotective activity against ischemia reperfusion injury in Wistar rat assessed as thrombin-antithrombin complex at 2 mg/kg, iv by enzyme immunoassay (RVb = 3.45 +/- 0.57 ug/L). It counts as functional.
Assay [3] has as its system Rattus norvegicus. Kind of assay: Neuroprotective activity against ischemia reperfusion injury in Wistar rat assessed as thrombin-antithrombin complex at 4 mg/kg, iv by enzyme immunoassay (RVb = 3.45 +/- 0.57 ug/L). Type of assay: functional.
Assay [4] deals with Rattus norvegicus. Kind of assay: Neuroprotective activity against ischemia reperfusion injury in Wistar rat assessed as […] 1+2 at 4 mg/kg, iv by enzyme immunoassay (RVb = 1.97 +/- 0.44 ug/L). It counts as functional.
For assay [5], the system named is Rattus norvegicus. Kind of assay: Neuroprotective activity against ischemia reperfusion injury in Wistar rat assessed as […] 1+2 at 2 mg/kg, iv by enzyme immunoassay (RVb = 1.97 +/- 0.44 ug/L). It counts as functional.
In assay [6] the test system is Rattus norvegicus. Kind of assay: Neuroprotective activity against ischemia reperfusion injury in Wistar rat assessed as thrombin-antithrombin complex at 8 mg/kg, iv by enzyme immunoassay (RVb = 3.45 +/- 0.57 ug/L). Type of assay: functional.
Assay [7] concerns Rattus norvegicus. The assay can be described thus: Neuroprotective activity against ischemia reperfusion injury in Wistar rat assessed as factor 7 level at 4 mg/kg, iv by amidolytic method (RVb = 1.24 +/- 0.34 mg/L). Type of assay: functional.
In assay [8] the test system is Rattus norvegicus. Kind of assay: Neuroprotective activity against ischemia reperfusion injury in Wistar rat assessed as factor 7 level at 8 mg/kg, iv by amidolytic method (RVb = 1.24 +/- 0.34 mg/L). Type of assay: functional.
Assay [9] has as its system Rattus norvegicus. The assay can be described thus: Neuroprotective activity against ischemia reperfusion injury in Wistar rat assessed as factor 7 level at 2 mg/kg, iv by amidolytic method (RVb = 1.24 +/- 0.34 mg/L). It counts as functional.
Assay [10] concerns Rattus norvegicus. The assay can be described thus: Neuroprotective activity against ischemia reperfusion injury in Wistar rat assessed as fibrinogen level at 8 mg/kg, iv by polymerization time method (RVb = 1.45 +/- 0.35 g/L). It counts as functional.
Assay [11] has as its system Rattus norvegicus. Kind of assay: Neuroprotective activity against ischemia reperfusion injury in Wistar rat assessed as fibrinogen level at 4 mg/kg, iv by polymerization time method (RVb = 1.45 +/- 0.35 g/L). It counts as functional.
The test system of assay [12] is Rattus norvegicus. The assay can be described thus: Neuroprotective activity against ischemia reperfusion injury in Wistar rat assessed as fibrinogen level at 2 mg/kg, iv by polymerization time method (RVb = 1.45 +/- 0.35 g/L). It counts as functional.
In assay [13] the test system is Rattus norvegicus. The assay can be described thus: Neuroprotective activity against ischemia reperfusion injury in Wistar rat hippocampal formation assessed as reduction in prothrombin mRNA level at 2 to 8 mg/kg, iv. Type of assay: functional, organism-based. The note with it: Hippocampus.
Assay [14] concerns Rattus norvegicus. Kind of assay: Neuroprotective activity in Wistar rat assessed as ischemia reperfusion injury-induced plasma angiotensin level at 2 to 8 mg/kg, iv by radioimmunoassay. It counts as functional, organism-based.
Assay [15] has as its system Rattus norvegicus. The assay can be described thus: Antiinflammatory activity in Wistar rat assessed as reduction in ischemia reperfusion injury-induced ICAM1 protein expression at 2 to 8 mg/kg, iv by Western blotting. It counts as functional, organism-based. On the technique in general: In western blotting, separated proteins are transferred to a membrane and probed.

The test system of assay [16] is Rattus norvegicus. The assay can be described thus: Antiinflammatory activity in Wistar rat assessed as reduction in ischemia reperfusion injury-induced ICAM1 mRNA expression at 2 to 8 mg/kg, iv by RT-PCR. It counts as functional, organism-based.
The test system of assay [17] is Rattus norvegicus. Kind of assay: Antiinflammatory activity in Wistar rat brain assessed as reduction in ischemia reperfusion injury-induced MPO activity at 2 to 8 mg/kg, iv. Type of assay: functional, organism-based.
Assay [18] deals with Rattus norvegicus. Kind of assay: Antiinflammatory activity in Wistar rat brain assessed as inhibition of ischemia reperfusion injury-induced NF-kappaB nuclear translocation at 2 to 8 mg/kg, iv. It counts as functional, organism-based.
For assay [19], the system named is Rattus norvegicus. Kind of assay: Antiinflammatory activity in Wistar rat hippocampus assessed as reduction in ischemia reperfusion injury-induced IkappaB alpha protein expression at 2 to 8 mg/kg, iv by Western blotting. Type of assay: functional, organism-based.
For assay [20], the system named is Rattus norvegicus. The assay can be described thus: Antiinflammatory activity in Wistar rat brain assessed as inhibition of ischemia reperfusion injury-induced p65 subunit binding to DNA at 2 to 8 mg/kg, iv by EMSA. Type of assay: functional, organism-based. On the technique in general: Mobility shift assays separate free from complexed probe on a gel.

Active and inactive are the calls of the source. The rule behind the calls is not given here.

For `O=C(/C=C/c1ccc(O)cc1)C1=C(O)C(O)([C@@H]2O[C@H](CO)[C@@H](O)[C@H](O)[C@H]2O)C(O)=C([C@@H]2O[C@H](CO)[C@@H](O)[C@H](O)[C@H]2O)C1=O` (stereo not given in full) [HYDROXYSAFFLOR YELLOW A], the Activity in assay [1] stood at 0.54 µg/L; in assay [2] it was 2.39 µg/L; in assay [3], 1.89 µg/L; in [4], 0.8 µg/L; in assay [5] it was 1.38 µg/L; in [6], 1.48 µg/L. In addition, the Activity in [7] was determined as 1.19 mg/L; in assay [8], 1.01 mg/L; in assay [9], 1.21 mg/L; in assay [10], 1.55 g/L; in [11] it was 1.9 g/L; in assay [12], 2.06 g/L. Moreover, the outcome in assay [13], in assay [14], in assay [15], in assay [16], in assay [17] and in [18] was Active. In addition, the result in assay [19] and in [20] was Active.

The values are drawn from ChEMBL document CHEMBL1177812, “Hydroxysafflor Yellow A suppresses thrombin generation and inflammatory responses following focal cerebral ischemia-reperfusion in rats” (2010).
